Laboratory results reported in article PMC7067379, “Mapping the S1 and S1’ subsites of cysteine proteases with new dipeptidyl nitrile inhibitors as trypanocidal agents” (PLoS Neglected Tropical Diseases, 2020).
Read-outs that look alike come from different tables or passages of the source.

Tests used:
cathepsin L (CatL) = cathepsin L (CatL) (Homo sapiens, UniProt P07711); assay: Cathepsin L enzyme inhibition; type: biochemical; settings: for Ki: SD lower than 15%, read-out: pKi CatL (converted)
Chain of cathepsin L (CatL) (P07711 114-333): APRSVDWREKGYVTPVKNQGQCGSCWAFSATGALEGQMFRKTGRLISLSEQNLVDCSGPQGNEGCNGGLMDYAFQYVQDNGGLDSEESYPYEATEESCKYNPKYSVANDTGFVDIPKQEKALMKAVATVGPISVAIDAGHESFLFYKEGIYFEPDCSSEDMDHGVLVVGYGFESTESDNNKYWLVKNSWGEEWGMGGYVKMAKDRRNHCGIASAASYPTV

recombinant cruzain (Cz) = recombinant cruzain (Cz) (Trypanosoma cruzi, UniProt P25779); assay: Cruzain enzyme inhibition; type: biochemical; settings: for Ki: SD lower than 15%, read-out: pKi Cz (converted); for remaining activity at 10 µM: replicates = 2; for difference in pKi, Cz: relative to compound 9, sign not given, direction by cell colour or wording
Chain of recombinant cruzain (Cz) (P25779 123-337): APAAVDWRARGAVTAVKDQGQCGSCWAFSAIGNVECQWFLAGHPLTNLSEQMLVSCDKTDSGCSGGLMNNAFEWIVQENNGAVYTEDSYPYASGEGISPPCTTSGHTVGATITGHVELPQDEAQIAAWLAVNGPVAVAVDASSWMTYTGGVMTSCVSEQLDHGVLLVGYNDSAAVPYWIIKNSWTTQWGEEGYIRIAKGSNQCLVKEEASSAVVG
Description: (§1) Enzyme inhibition studies for Cz and LmCPB were performed as previously described for Cz. The experimental procedures are described in the Supporting Information (see chapter S3). Cathepsins B, L, S were assayed as reported.

[1] = target: T1, Human recombinant cathepsin K (Homo sapiens, UniProt P43235); assay: Cathepsin K assay; type: biochemical; settings: for remaining activity at 10 µM: replicates = 2, n.i. = no inhibition observed at 10 μM, read-out: remaining activity (%) at 10 μM, CatK; for Ki: SD lower than 15%, read-out: pKi CatK (converted)
T1 sequence (P43235 115-329): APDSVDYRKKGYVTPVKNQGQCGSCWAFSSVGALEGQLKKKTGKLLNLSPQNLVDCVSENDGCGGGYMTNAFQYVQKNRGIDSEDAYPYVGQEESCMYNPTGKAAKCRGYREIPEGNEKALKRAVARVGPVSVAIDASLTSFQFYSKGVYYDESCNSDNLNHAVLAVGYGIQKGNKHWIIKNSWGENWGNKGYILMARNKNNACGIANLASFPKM
Description: Human recombinant cathepsin K was assayed on a FLUOSTAR Optima plate reader at 25 °C with an excitation wavelength of 360 nm and an emission wavelength of 440 nm on a 96 well plate. The enzyme solution (23 μg/mL in 50 mM sodium acetate pH 5.5, 50 mM NaCl, 0.5 mM EDTA, 5 mM DTT) was diluted 1:100 with assay buffer (100 mM sodium citrate buffer pH 5.0, 100 mM NaCl, 1 mM EDTA, 0.01% CHAPS) containing 5 mM DTT and was then incubated at 37 °C for 30 min for activation. A 1.5 mM stock solution of the substrate Z-Leu-Arg-AMC was prepared in DMSO. […] The assay was performed with a final concentration of cathepsin K of 1.73 ng/mL. Stock solutions of inhibitors were prepared in DMSO. The final DMSO concentration was 2% (4 μL). Into a well containing 194.5 μL assay buffer, 0.8 μL of the fluorogenic substrate, DMSO and inhibitor solution (3.2 μL) were added. Upon addition of cathepsin K (1.5 μL), the measurement was started and followed for 20 min.

cathepsin B (CatB) = cathepsin B (CatB) (Homo sapiens, UniProt P07858); assay: Cathepsin B enzyme inhibition; type: biochemical; settings: for Ki: SD lower than 15%, read-out: pKi CatB (converted); for remaining activity at 10 µM: replicates = 2, n.i. = no inhibition observed at 10 μM
cathepsin S (CatS) = cathepsin S (CatS) (Homo sapiens, UniProt P25774); assay: Cathepsin S enzyme inhibition; type: biochemical; settings: for Ki: SD lower than 15%, read-out: pKi CatS (converted)
Chain of cathepsin S (CatS) (P25774 115-331): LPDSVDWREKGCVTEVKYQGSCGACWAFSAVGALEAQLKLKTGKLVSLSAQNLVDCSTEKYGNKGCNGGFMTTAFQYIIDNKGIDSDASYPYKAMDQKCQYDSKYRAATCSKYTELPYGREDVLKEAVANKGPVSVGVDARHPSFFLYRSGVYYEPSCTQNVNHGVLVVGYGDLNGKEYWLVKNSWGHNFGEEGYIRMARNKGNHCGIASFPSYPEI
Description: as §1

[2] = target: Leishmania mexicana CPB (LmCPB) (Leishmania mexicana, UniProt P36400); assay: LmCPB enzyme inhibition; type: biochemical; settings: for Ki: SD lower than 15%, read-out: pKi LmCPB (converted); for remaining activity at 10 µM: replicates = 2
Chain of Leishmania mexicana CPB (LmCPB) (P36400 126-443): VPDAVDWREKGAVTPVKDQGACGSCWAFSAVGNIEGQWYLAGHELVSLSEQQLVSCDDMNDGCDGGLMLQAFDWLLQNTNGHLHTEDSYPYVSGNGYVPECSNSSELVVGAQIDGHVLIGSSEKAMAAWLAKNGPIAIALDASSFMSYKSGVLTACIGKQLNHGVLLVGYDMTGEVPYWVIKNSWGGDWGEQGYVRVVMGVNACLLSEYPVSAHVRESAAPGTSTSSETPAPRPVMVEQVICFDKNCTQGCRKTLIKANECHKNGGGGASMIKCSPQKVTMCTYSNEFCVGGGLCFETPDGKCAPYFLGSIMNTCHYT
Description: as §1

[3] = test system: T. cruzi Tulahuen LacZ strain, intracellular amastigote forms; assay: In vitro trypanocidal activity on intracellular amastigote forms (Tulahuen strain); type: cell-based, Trypanosoma cruzi; settings: for EC50: Trypanosoma cruzi, TULAHUEN; for SI (selective index): from EC50 (T. cruzi) and CC50 (LLCMK2)
Description: Cells were evaluated in 96-well plates. Cells from the LLCMK2 lineage were plated at a concentration of 5x10^4 cells mL^-1. Trypomastigote forms of the Tulahuen LacZ strain were added at a concentration of 5×10^5 parasites mL^-1 and placed in the incubator at 37°C with 5% CO2 for 24 h. After the incubation period, the trypomastigote forms present were removed by successive washes with PBS, remaining only as intracellular amastigote forms. Compounds were added at different concentrations (1.95 μM to 250 μM serial dilutions) and incubated for 72 h. At the end of this period, the substrate CPRG (chlorophenol red β-D-galactopyranoside, 400 μM in 0.3% Triton X-100, pH 7.4) was added. […] Benznidazole was used as a positive control in the same concentrations as the substances, and DMSO as a negative control. Compounds were solubilized in DMSO. The selectivity index (SI) was calculated using the formula: […]. All statistical analyses were done with the program GraphPad Prism v.5.

[4] = Mammalian cytotoxicity assay (MTT); type: cell-based; settings: rhesus monkey, LLCMK2 cells;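 note: Read-out is absorbance at 570 nm of formazan taken up in DMSO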
[5] = 72 h, amastigote, Tulahuen strain, 72 h, Table 2, read-out: EC50 trypanocidal activity
[6] = LLCMK2, 72 h, MTT, Table 2, read-out: CC50 cytotoxicity
[7] = T. cruzi amastigote form, S1 Table, read-out: pEC50 (converted)
[8] = S1 Table, maximum concentration used 250 µM, read-out: EC50 T. cruzi
[9] = S1 Table, maximum concentration used 250 µM, read-out: CC50
[10] = 10 μM, replicates = 2, n.i. = no inhibition observed at 10 μM
[11] = relative to compound 9, sign not given, direction by cell colour or wording

| Compound | Ki (cathepsin L (CatL)) [µM] | Ki (recombinant cruzain (Cz)) [µM] | remaining activity at 10 µM [1] [%] | melting point [°C] | Ki (cathepsin B (CatB)) [µM] | Ki (cathepsin S (CatS)) [µM] | Ki [2] [µM] | EC50 [3, 5] [µM] | SI (selective index) ([3]; Table 2) | CC50 at 72 h [4, 6] [µM] | Ki [1] [µM] | remaining activity at 10 µM (cathepsin B (CatB)) [%] | EC50 [3, 7] [µM] | remaining activity at 10 µM [2] [%] | EC50 [3, 8] [µM] | CC50 at 72 h [4, 9] [µM] | other results |
| --- | --- | --- | --- | --- | --- | --- | --- | --- | --- | --- | --- | --- | --- | --- | --- | --- | --- |
| C[C@@H](OCc1ccccc1)[C@H](NC(=O)c1cc(C(C)(C)C)nn1C)C(=O)NC1(C#N)CC1 [Compound 12, N-((2S,3R)-3-(Benzyloxy)-1-((1-cyanocyclopropyl)amino)-1-oxobutan-2-yl)-3-(tert-butyl)-1-methyl-1H-pyrazole-5-carboxamide] | 1.26 | 7.94 | 96 | 100 to 101 | 39.8 | 1.26 | 3.16 | 32.7 ± 3.86 | > 3.1 | > 100 |  |  |  |  |  |  | EC50 ([3]; read-out: pEC50, T. cruzi amastigote form (converted), S1 Table): 31.6 µM |
| CC(C)C[C@H](NC(=O)c1cc(C(C)(C)C)nn1C)C(=O)N[C@H](C#N)[C@@H](C)O [Compound 67, 3-(tert-Butyl)-N-((S)-1-(((1R,2R)-1-cyano-2-hydroxypropyl)amino)-4-methyl-1-oxopentan-2-yl)-1-methyl-1H-pyrazole-5-carboxamide] | 0.1 | 0.0794 |  | 118 to 119 |  | 10 | 0.2 | 24.4 ± 2.36 | > 4.1 | > 100 | 0.0158 | 92 | 25.1 |  |  |  |  |
| C[C@@H](O)[C@@H](C#N)NC(=O)[C@H](Cc1ccccc1)NC(=O)c1cc(C(C)(C)C)nn1C [Compound 65, 3-(tert-Butyl)-N-((S)-1-(((1R,2R)-1-cyano-2-hydroxypropyl)amino)-1-oxo-3-phenylpropan-2-yl)-1-methyl-1H-pyrazole-5-carboxamide] | 5.01 |  | 86 | 159 to 160 |  | 5.01 |  | 70.8 ± 8.79 | > 1.4 | > 100 |  | 92 | 79.4 | 69 |  |  | remaining activity at 10 µM (recombinant cruzain (Cz)): 68% |
| C[C@@H](OCc1ccccc1)[C@@H](C#N)NC(=O)[C@H](Cc1ccccc1)NC(=O)c1cc(C(C)(C)C)nn1C [Compound 56, N-((S)-1-(((1R,2R)-2-(Benzyloxy)-1-cyanopropyl)amino)-1-oxo-3-phenylpropan-2-yl)-3-(tert-butyl)-1-methyl-1H-pyrazole-5-carboxamide] | 0.1 | 0.501 |  | 115 to 116 | 6.31 | 1 | 0.316 |  |  |  | 2 |  | > 100 |  | > 100 | > 100 | difference in pKi, Cz (recombinant cruzain (Cz)): -1.0; EC50 ([3]; amastigote forms of T. cruzi (Tuhaluen strain), Figs 12-14, unit inferred): > 100 µM |
| C[C@H](O)[C@H](C#N)NC(=O)[C@H](Cc1ccccc1)NC(=O)c1cc(C(C)(C)C)nn1C [Compound 66, 3-(tert-Butyl)-N-((S)-1-(((1S,2S)-1-cyano-2-hydroxypropyl)amino)-1-oxo-3-phenylpropan-2-yl)-1-methyl-1H-pyrazole-5-carboxamide] | 2.51 | 3.98 | 81 | 145 to 147 |  | 20 | 15.8 | 30 ± 2.71 | > 3.3 | > 100 |  | 89 | 31.6 |  |  |  |  |
| C[C@@H](O)[C@H](NC(=O)c1cc(C(C)(C)C)nn1C)C(=O)NC1(C#N)CC1 [Compound 19, 3-(tert-Butyl)-N-((2S,3R)-1-((1-cyanocyclopropyl)amino)-3-hydroxy-1-oxobutan-2-yl)-1-methyl-1H-pyrazole-5-carboxamide] | 6.31 |  |  | 201 to 202 | 25.1 | 10 |  |  |  |  | 3.16 |  | > 100 | 67 | > 100 | > 100 | difference in pKi, CatL (cathepsin L (CatL); relative to compound 11, sign not given, direction by cell colour or wording): 0.5; remaining activity at 10 µM (recombinant cruzain (Cz)): 51% |
| CC(C)CC(C#N)NC(=O)[C@H](Cc1ccccc1)NC(=O)c1cc(C(C)(C)C)nn1C (stereo in doubt) [Compound 53, 3-(tert-Butyl)-N-((S)-1-(((S)-1-cyano-3-methylbutyl)amino)-1-oxo-3-phenylpropan-2-yl)-1-methyl-1H-pyrazole-5-carboxamide] | 0.1 | 0.316 |  | 91 to 94 |  | 1 | 0.398 | 26 ± 2.6 | > 3.8 | > 100 | 1 | 90 | 25.1 |  |  | 132 |  |
| CC(C)C[C@H](NC(=O)c1cc(C(C)(C)C)nn1C)C(=O)N[C@@H](C#N)[C@H](C)O [Compound 68, 3-(tert-Butyl)-N-((S)-1-(((1S,2S)-1-cyano-2-hydroxypropyl)amino)-4-methyl-1-oxopentan-2-yl)-1-methyl-1H-pyrazole-5-carboxamide] |  | 3.98 |  | 111 to 113 |  |  |  | 16 ± 4 | > 6.3 | > 100 | 7.94 | 93 | 15.8 | 54 | 16.3 |  | remaining activity at 10 µM (cathepsin L (CatL); [10]): 88%; remaining activity at 10 µM (cathepsin S (CatS); [10]): 83% |
| CC(C)C[C@@H](C#N)NC(=O)[C@H](Cc1ccccc1)NC(=O)c1cc(C(C)(C)C)nn1C [Compound 52, 3-(tert-Butyl)-N-((S)-1-(((S)-1-cyano-3-methylbutyl)amino)-1-oxo-3-phenylpropan-2-yl)-1-methyl-1H-pyrazole-5-carboxamide] | 0.00501 | 0.0316 |  | 81 to 82 | 7.94 | 0.126 | 0.0398 | 4.1 ± 0.47 |  | 97.9 ± 6.52 | 0.2 |  | 3.98 |  |  |  | fold increase in trypanocidal potency ([3]; compared with compound 9): 17.5 fold |
| Cn1nc(C(C)(C)C)cc1C(=O)N[C@@H](Cc1ccccc1)C(=O)N[C@H](C#N)Cc1ccccc1 [Compound 50, 3-(tert-Butyl)-N-((S)-1-(((S)-1-cyano-2-phenylethyl)amino)-1-oxo-3-phenylpropan-2-yl)-1-methyl-1H-pyrazole-5-carboxamide] | 0.00316 | 0.02 |  | 89 to 90 | 31.6 | 0.0501 | 0.0158 | 63.3 ± 5.74 | 1.31 | 83.1 ± 6.85 | 0.501 |  | 63.1 |  | 63.5 |  | difference in pKi, Cz (recombinant cruzain (Cz)): 0.4; difference in pKi, CatB (cathepsin B (CatB); [11]): 0.3; difference in pKi, LmCPB [2, 11]: 0.7 |
